# Experimental data as given in patent US5518912A, “Endopeptidase” (priority 1993, dated 1996).
# Positions of bridges follow the written chain, without caps; N, C: chain ends. Non-standard residues stand in square brackets, D forms with d. Residues, ends and D or L forms follow the SMILES beside them. *: point of attachment. Ileψ(thiazoline)Cys = CC[C@H](C)[C@H](N)C1=N[C@H](C(=O)*)CS1; Sta = CC(C)C[C@H](N)[C@@H](O)CC(=O)O; dOrn = NCCC[C@@H](N)C(=O)O; Isovaleryl = CC(C)CC(=O)*
# What was measured:
# [1] = test system: endopeptidase from the skin of Xenopus laevis; assay: Inhibitor studies: enzyme preincubated with inhibitor, then cleavage of substrate peptide read on acid gel; type: biochemical; details: for % INHIBITION: substrate magainin 2-amide; for effect of proteinase inhibitor on enzyme activity (in words): summary of Table 2
# Method: Reaction buffer consisted of 20 mM Na phosphate, 50 mM NaCl final concentration. After quenching the reaction with 0.5 volume of glacial acetic acid, a 15 μl aliquot of each reaction was analyzed by acidic gel electrophoresis. […]
# Inhibitor studies were conducted in the same fashion; the only difference involved first incubating the enzyme with each inhibitor tested at a particular concentration in the absence of any substrate for one hour at room temperature. Substrate was then added to the reaction and allowed to incubate for an additional hour at room temperature.
# ACIDIC GEL ELECTROPHORESIS--Acidic gels (pH 4) were prepared and run as originally described (Gabriel, 1971) with several modifications. The gel solution consisted of a final concentration of 15% (v/v) acrylamide (acrylamide:bisacrylamide/37.5:1), 88 mM KOH, 3% (v/v) glacial acetic acid, 0.75% (v/v) […] (Temed), 0.375% ammonium persulfate (30 mg/ml). Before loading samples, 0.5 volume of glacial acetic acid was added, as well as 0.5 volume of 0.1% Pyronin Y loading dye. MINI PROTEAN gel apparatus (Biorad, Richmond, Calif.) were used and gels electrophoresed at 200 volts in running buffer containing 0.035M β-alanine and glacial acetic acid (2.45 ml/l), pH 4.0. Gels were stained in 0.1% (w/v) Coomassie Brilliant Blue R-250 (Sigma), 50% methanol, 50% water and destained in distilled water.
# [2] = test system: endopeptidase from the skin of Xenopus laevis; assay: Substrate specificity analyses: cleavage of peptides and analogues by the purified endopeptidase (acid gel, HPLC/amino acid analysis); type: biochemical; details: 50 μg peptide, one hour, room temperature
# Method: ENZYME ASSAYS--Activity was monitored by incubating 0.1-10 μl of each chromatographic fraction with 50 μg of magainin 2-amide substrate in a total volume of 100 μl for one hour at room temperature. Reaction buffer consisted of 20 mM Na phosphate, 50 mM NaCl final concentration. After quenching the reaction with 0.5 volume of glacial acetic acid, a 15 μl aliquot of each reaction was analyzed by acidic gel electrophoresis. One unit of enzyme activity is defined as the amount of enzyme required to convert 25 μg of magainin 2-amide substrate into half-peptide products under the above conditions.
# Substrate specificity analyses were carried out as described above except that 50 μg of each substrate analogue under investigation was substituted for magainin 2-amide in the incubation at the same concentration.
# Before loading samples, 0.5 volume of glacial acetic acid was added, as well as 0.5 volume of 0.1% Pyronin Y loading dye. […]
# 100 μl reactions were injected into a Beckman HPLC System Gold instrument and run on a C18 reversed phase column (4.6×220 mm, Aquapore OD-300, Applied Biosystems, Foster City, Calif.). […] Portions of the resuspended sample were injected into an amino acid analyzer with automated hydrolysis (model 420/130, Applied Biosystems, Foster City, Calif.), and numerical calculations for specific amino acids were determined using an Applied Biosystems 920A data analysis module.
# [3] = inhibitor 1 mM, one unit endopeptidase preincubated one hour
compound,measurement,setting,value
"c1cnc2c(c1)ccc1cccnc12 [1,10-Phenanthroline, 1,10-phenanthroline]",% INHIBITION,[1]; inhibitor 0.2 mM,70%
same,% INHIBITION,[1]; inhibitor 2 mM,100%
same,% INHIBITION,[1]; inhibitor 20 mM,100%
same,effect of proteinase inhibitor on enzyme activity (in words),[1],substantially inhibited enzyme activity
"CC[C@H](C)[C@H](N)C1=N[C@H](C(=O)N[C@@H](CC(C)C)C(=O)N[C@H](CCC(=O)O)C(=O)N[C@H](C(=O)N[C@H]2CCCCNC(=O)[C@H](CC(N)=O)NC(=O)[C@@H](CC(=O)O)NC(=O)[C@H](Cc3cnc[nH]3)NC(=O)[C@@H](Cc3ccccc3)NC(=O)[C@H]([C@@H](C)CC)NC(=O)[C@@H](CCCN)NC2=O)[C@@H](C)CC)CS1 [Bacitracin, bacitracin] ({Ileψ(thiazoline)Cys}-L[dE]IK[dOrn]I[dF]H[dD]N; lactam 4-C)",% INHIBITION,[1]; inhibitor 1 mg/ml,0%
same,effect of proteinase inhibitor on enzyme activity (in words),[1],no effect on endoproteolysis
"CC(C)C[C@H](NC(=O)[C@H]1O[C@@H]1C(=O)O)C(=O)NCCCCN=C(N)N [E-64, N-[N-(L-3-trans-carboxyoxiran-2-carbonyl)-L-leucyl]-agmatine]",% INHIBITION,[1]; inhibitor 300 μM,0%
same,effect of proteinase inhibitor on enzyme activity (in words),[1],no effect on enzyme activity
"O=C(O)CN(CCN(CC(=O)O)CC(=O)O)CC(=O)O [EDTA, ethylenediaminetetraacetic acid]",% INHIBITION,[1]; inhibitor 0.5 mM,25%
same,% INHIBITION,[1]; inhibitor 5 mM,25%
same,% INHIBITION,[1]; inhibitor 50 mM,50%
same,effect of proteinase inhibitor on enzyme activity (in words),[1],substantially inhibited enzyme activity
"CC(=O)N[C@@H](CC(C)C)C(=O)N[C@@H](CC(C)C)C(=O)N[C@H](C=O)CCCNC(=N)N [Leupeptin, leupeptin]",% INHIBITION,[1]; [3],0%
same,effect of proteinase inhibitor on enzyme activity (in words),[1],no effect on enzyme activity
"O=S(=O)(F)Cc1ccccc1 [PMSF, phenylmethanesulfonyl fluoride]",% INHIBITION,[1]; inhibitor 10 mM,0%
same,effect of proteinase inhibitor on enzyme activity (in words),[1],no effect on enzyme activity
"CC(C)CC(=O)N[C@H](C(=O)N[C@H](C(=O)N[C@@H](CC(C)C)[C@@H](O)CC(=O)N[C@@H](C)C(=O)N[C@@H](CC(C)C)[C@@H](O)CC(=O)O)C(C)C)C(C)C [Pepstatin, pepstatin] (Isovaleryl-VV[Sta]A[Sta]-OH)",% INHIBITION,"[1]; inhibitor 100 μm, one unit endopeptidase preincubated one hour",0%
same,effect of proteinase inhibitor on enzyme activity (in words),[1],no effect on enzyme activity
"CC(C)C[C@H](NP(=O)(O)O[C@@H]1O[C@@H](C)[C@H](O)[C@@H](O)[C@H]1O)C(=O)N[C@@H](Cc1c[nH]c2ccccc12)C(=O)O [Phosphoramidon, phosphoramidon]",% INHIBITION,[1]; inhibitor 1 μM,0%
same,% INHIBITION,[1]; inhibitor 100 μM,0%
same,effect of proteinase inhibitor on enzyme activity (in words),[1],no effect on endoproteolysis
CC[C@H](C)[C@H](NC(=O)CN)C(=O)NCC(=O)N[C@@H](C)C(=O)N[C@H](C(=O)N[C@@H](CC(C)C)C(=O)N[C@@H](CCCCN)C(=O)N[C@H](C(=O)N[C@@H](CC(C)C)C(=O)N[C@H](C(=O)N[C@H](C(=O)NCC(=O)N[C@@H](CC(C)C)C(=O)N1CCC[C@H]1C(=O)N[C@@H](C)C(=O)N[C@@H](CC(C)C)C(=O)N[C@H](C(=O)N[C@@H](CO)C(=O)N[C@@H](Cc1c[nH]c2ccccc12)C(=O)N[C@H](C(=O)N[C@@H](CCCCN)C(=O)N[C@@H](CCCNC(=N)N)C(=O)N[C@@H](CCCCN)C(=O)N[C@@H](CCCNC(=N)N)C(=O)N[C@@H](CCC(N)=O)C(=O)N[C@@H](CCC(N)=O)C(N)=O)[C@@H](C)CC)[C@@H](C)CC)[C@@H](C)O)[C@@H](C)O)C(C)C)C(C)C [melittin],cleavage of the peptide by the endopeptidase (in words),[2],do not serve as substrates
same,inhibition of cleavage of magainin 2,"[1]; preincubation with tenfold molar excess of peptide, substrate magainin 2",approximately 25%
K11R: magainin 1 analogue constituting the replacement of all lysines with arginines,cleavage of the peptide by the endopeptidase (in words),[2],effectively served as a substrate
tosyl-L-phenylalanine chloromethyl ketone [TPCK],% INHIBITION,[1]; [3],0%
same,effect of proteinase inhibitor on enzyme activity (in words),[1],no effect on enzyme activity
